{
  "source": "patent US6452005B1",
  "about": "“JAK-3 inhibitors for treating allergic disorders” (Parker Hughes Institute, priority 1999, dated 2002)",
  "key": {"[1]": {"tested_on": "JAK3-dependent STAT activation", "assay": "EMSA, IL-2 triggered STAT activation in 32Dc11/IL2Rβ cells", "type": "cell-based", "method": "Electrophoretic Mobility Shift Assays (EMSAs). EMSAs were performed to examine the effects of dimethoxyquinazoline compounds on cytokine-induced STAT activation (Goodman et. al., 1998). […] Cells were collected after 15 minutes and resuspended in lysis buffer (100 mM Tris-HCl pH 8.0, 0.5% NP-40, 10% glycerol, […], 0.1 mM NaVO3, 50 mM NaF, 150 mM NaCl, 1 mM DTT, 3 μg/ml Aprotinin, 2 μg/ml Pepstatin A, 1 μg/ml Leupeptin and 0.2 mM PMSF). Lysates were precleared by centrifugation for 30 min. Cell extracts (approximately 10 μg) were incubated with 2 μg of poly(dI-dC) for 30 minutes, followed by a 30 minutes incubation with 1ng of poly. nucleotide kinase-^32P labeled double stranded DNA oligonucleotide representing the IRF-1 STAT DNA binding sequence (Santa Cruz Biotechnology, Santa Cruz, Calif.). Samples were resolved by non-denaturing PAGE and visualized by autoradiography."}, "BTK": {"molecular_target": "T1, BTK (Homo sapiens, UniProt Q06187)", "T1 construct": "made in house; host or cells: Sf21 insect cells, baculovirus", "T1 sequence (Q06187 whole entry, species assumed)": "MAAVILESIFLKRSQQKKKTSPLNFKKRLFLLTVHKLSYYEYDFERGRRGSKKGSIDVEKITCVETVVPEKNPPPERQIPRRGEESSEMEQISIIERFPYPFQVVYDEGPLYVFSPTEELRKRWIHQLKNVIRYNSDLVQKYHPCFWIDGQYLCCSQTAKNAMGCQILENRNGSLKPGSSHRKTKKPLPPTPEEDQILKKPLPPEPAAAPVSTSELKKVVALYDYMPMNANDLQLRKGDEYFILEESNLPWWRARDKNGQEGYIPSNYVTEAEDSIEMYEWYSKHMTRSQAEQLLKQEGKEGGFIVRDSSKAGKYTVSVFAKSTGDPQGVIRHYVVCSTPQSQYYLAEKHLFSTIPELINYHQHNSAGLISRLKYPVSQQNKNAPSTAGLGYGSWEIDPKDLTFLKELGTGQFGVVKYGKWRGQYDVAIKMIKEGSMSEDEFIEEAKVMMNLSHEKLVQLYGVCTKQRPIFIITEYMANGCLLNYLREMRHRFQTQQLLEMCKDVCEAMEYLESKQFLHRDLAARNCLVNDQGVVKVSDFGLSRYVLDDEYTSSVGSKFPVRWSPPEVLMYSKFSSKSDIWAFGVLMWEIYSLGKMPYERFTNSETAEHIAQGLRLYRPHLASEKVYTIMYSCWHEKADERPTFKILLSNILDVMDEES", "assay": "Immune complex kinase assay, BTK from Sf21 cells", "type": "biochemical", "settings": "concentrations as high as 350 μM", "excerpt": "Immune Complex Kinase Assays."}, "RBL-2H3 cells": {"tested_on": "RBL-2H3 cells", "assay": "Calcium mobilization assay (Fluo-3)", "type": "cell-based, rat", "method": "IgE sensitized RBL-2H3 cells were loaded with 1 μM Fluo-3 for 1 hour as described in the Examples below. The cells were then challenged with DNP-BSA or ionomycin and change in fluorescence was recorded. To study the effect of WHI-P131 on intracellular calcium mobilization, IgE-sensitized and Fluo-3 loaded RBL-2H3 cells were incubated with 3 μM, 12 μM or 30 μM WHI-P131 for 5 minutes prior to challenge with DNP-BSA or ionomycin.\nCalcium Measurement: Calcium mobilization assay was performed as described earlier (Zhu et. al., 1998, Clin. Cancer Res., 4:2967-2976). RBL-2H3 cells were loaded with Fluo-3 and stimulated with DNP-BSA in presence and absence of WJI-P131 as described above. Calcium response was measured by an calcium imaging device (Universal Imaging Co., West Chester, Pa.) mounted onto a inverted microscope. The exitation wavelength was 485 nm and the emission wavelength for detection was 535 nm. The fluorescent image of an individual cell was acquired by a CCD72 video camera (Dage-MTI Inc., Michigan City, Ill.) at the speed of 1 frame/s and digitized by computer."}, "RBL-2H3 mast cells": {"tested_on": "RBL-2H3 mast cells", "assay": "IgE/antigen-induced degranulation and mediator release", "type": "cell-based, rat", "settings": "1 h preincubation, DNP-BSA challenge; at ≧30 μM", "excerpt": "Vehicle treated control RBL-2H3 cells released 45.1±3.1% of their hexosaminidase contents after DNP-BSA challenge. […] Vehicle treated control cells released 11.3±1.3 pg LTC4, and 160±33.0 pg TNFα/10^6 mast cells. The results on LTC4 and TNFα release are expressed as percent of maximum control release from vehicle treated control mast cells. The data points represent the mean±SEM values obtained from 3-6 independent experiments. […] *P<0.05 and **P<0.0001 compared to control as determined by Student's t test.\nSupernatants were removed and saved."}, "BALB/c mice": {"tested_on": "BALB/c mice", "assay": "Passive cutaneous anaphylaxis model", "type": "in vivo", "settings": "25 mg/kg i.p. dose level", "method": "FIG. 14A is a graph showing the effects of WHI-P131 on anaphylaxis-associated vascular hyperpermeability, examined by evaluating the cutaneous extravasation of albumin-bound Evans blue dye in mice (n=12). The plasma exudation indices were determined for vehicle treated as well as WHI-P131 treated mice, as described in the Examples. To study the effect of WHI-P131 on anaphylaxis, IgE sensitized mice were injected with two consecutive doses of 10 or 25 mg/kg WHI-P131 at 90 minutes before and 30 minutes before the antigen challenge, respectively. Mice were then challenged with 100 μg DNP-BSA in 2% Evans blue dye and the plasma exudation indices were determined. […] The data are expressed as plasma exudation index (times increase in optical density over PBS treated ears. The mean OD (at 620 nm) of vehicle treated ears was 0.22±0.04 before and 0.918±0.05 after the IgE/antigen challenge. *p<0.05 compared to vehicle treated controls.\nAfter 20 hours, mice were treated with WHI-P131 (10 or 25 mg/kg i.p.) twice at 1 hour intervals prior to the antigen challenge. […] For quantitation of Evans blue dye extravasation as a measure of anaphylaxis-associated vascular hyperpermeability, 8 mm skin specimens were removed from the ears of mice, minced in 2 ml formamide and incubated at 80° C. for 2 hours in water bath to extract the dye. The absorbance was read at 620 nm. […]"}, "recombinant JAK2": {"molecular_target": "recombinant JAK2 (Homo sapiens, UniProt O60674)", "sequence (O60674 whole entry)": "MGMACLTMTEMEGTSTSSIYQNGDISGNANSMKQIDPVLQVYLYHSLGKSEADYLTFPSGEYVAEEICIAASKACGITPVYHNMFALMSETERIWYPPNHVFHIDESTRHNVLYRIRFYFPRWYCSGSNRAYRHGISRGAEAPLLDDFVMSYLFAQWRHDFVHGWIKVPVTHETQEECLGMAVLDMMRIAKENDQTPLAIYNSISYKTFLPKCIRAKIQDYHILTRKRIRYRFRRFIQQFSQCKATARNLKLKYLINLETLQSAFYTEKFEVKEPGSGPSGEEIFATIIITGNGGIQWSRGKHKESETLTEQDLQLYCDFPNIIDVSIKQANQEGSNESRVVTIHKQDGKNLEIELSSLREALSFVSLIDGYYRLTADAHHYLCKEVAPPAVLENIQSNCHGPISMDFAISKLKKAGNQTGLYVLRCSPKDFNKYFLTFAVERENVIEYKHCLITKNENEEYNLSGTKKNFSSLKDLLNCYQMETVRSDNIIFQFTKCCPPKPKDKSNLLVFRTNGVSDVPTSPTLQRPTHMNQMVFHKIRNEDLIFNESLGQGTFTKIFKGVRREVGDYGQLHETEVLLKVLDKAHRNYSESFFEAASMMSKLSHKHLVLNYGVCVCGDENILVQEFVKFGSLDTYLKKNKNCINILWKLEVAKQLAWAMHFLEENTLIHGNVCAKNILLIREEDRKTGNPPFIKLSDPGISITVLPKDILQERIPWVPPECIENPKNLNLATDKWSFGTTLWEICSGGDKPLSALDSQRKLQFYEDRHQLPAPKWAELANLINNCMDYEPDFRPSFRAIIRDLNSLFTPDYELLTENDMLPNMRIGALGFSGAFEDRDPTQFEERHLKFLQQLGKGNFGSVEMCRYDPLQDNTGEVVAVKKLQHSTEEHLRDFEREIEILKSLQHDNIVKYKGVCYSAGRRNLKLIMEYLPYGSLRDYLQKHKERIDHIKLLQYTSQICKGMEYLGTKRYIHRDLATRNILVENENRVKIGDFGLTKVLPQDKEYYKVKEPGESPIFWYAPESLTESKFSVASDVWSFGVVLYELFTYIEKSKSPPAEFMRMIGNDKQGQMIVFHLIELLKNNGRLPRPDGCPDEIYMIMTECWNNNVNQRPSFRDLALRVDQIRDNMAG", "assay": "Immune complex kinase assay, recombinant JAK2", "settings": "FIG. 6C & D", "description": "In FIGS. 6A-6D, JAK3, JAK1, and JAK2 were immunoprecipitated from Sf21 insect ovary cells transfected with the appropriate baculovirus expression vectors and treated with WHI-P131, then subjected to in vitro kinase assays as described in the Examples below. The enzymatic activity of JAKs was determined by measuring autophosphorylation in a 10 minute kinase assay, as described in the Examples below. The kinase activity (KA) levels were expressed as percentage of baseline activity (%CON).\nImmune Complex Kinase Assays. Sf21 (IPLB-SF21-AE) cells (Vassilev et. al., 1999, J. Biol. Chem,. 274:1646-1656) derived from the ovarian tissue of the fall armyworm Spodotera frugiperda, were obtained from Invitrogen and maintained at 26-28° C. in Grace's insect cell medium supplemented with 10% FBS and 1.0% antibiotic/antimycotic (GIBCO-BRL). Stock cells were maintained in suspension at 0.2-1.6×10^6/ml in 600 ml total culture volume in 1 L Bellco spinner flasks at 60-90 rpm. Cell viability was maintained at 95-100% as determined by trypan blue dye exclusion.\nSf21 cells were infected with a baculovirus expression vector for BTK, SYK, JAK1, JAK2, or JAK3, as previously reported (Mahajan et. al., 1999, J. Biol. Chem., 274:1646-1656). […]"}},
  "data": [
    {"smiles": "COc1cc2ncnc(Nc3ccc(O)cc3)c2cc1OC", "note": "[WHI-P131, 4-(4′-Hydroxylphenyl)-amino-6,7-dimethoxyquinazoline]", "values": [
      {"measurement": "JAK3-dependent STAT activation after stimulation with IL-2", "setting": "[1]; 10 μg/ml, 32Dc11/IL2Rβ cells", "value": "inhibited"},
      {"measurement": "IL-2 triggered JAK-3-dependent STAT activation", "setting": "[1]; 100 μg/ml in FIG. 6E legend", "value": "inhibited"},
      {"measurement": "effect on enzymatic activity of BTK", "setting": "BTK", "value": "did not affect"},
      {"measurement": "ionomycin induced nonspecific calcium responses", "setting": "RBL-2H3 cells", "value": "not affected"},
      {"measurement": "calcium response to DNP-BSA", "setting": "RBL-2H3 cells; 30 μM, IgE-sensitized, Fluo-3 loaded", "value": "abrogated"},
      {"measurement": "LTC4 release", "setting": "RBL-2H3 mast cells", "value": "near to complete inhibition"},
      {"measurement": "TNFα release", "setting": "RBL-2H3 mast cells", "value": "near to complete inhibition"},
      {"measurement": "β-hexosaminidase release (degranulation)", "setting": "RBL-2H3 mast cells", "value": "near to complete inhibition"},
      {"measurement": "inhibition of IgE/antigen induced plasma exudation (Evans blue extravasation)", "setting": "BALB/c mice", "value": 70, "unit": "%"},
      {"measurement": "inhibitory activity against recombinant JAK2", "setting": "recombinant JAK2", "value": "did not exhibit any detectable inhibitory activity"}
    ]}
  ]
}
